{"source": "patent US8361802B2", "about": "“Fluorescent ozone sensor” (University of Pittsburgh—Of the Commonwealth System of …, priority 2009, dated 2013)", "key": {"[1]": {"assay": "Ozone detection in ambient (outdoor) air", "conditions": "8 hours", "protocol": "In all cases, sensor 4=12.5 μM and all ozone assays were performed in 5:95 MeOH/pH 7 buffer. Solutions of senor 4 in 5:95 MeOH/pH 7 buffer were prepared and exposed to ambient air in various locations throughout a city on a hot, sunny day (˜32° C.) for 8 hours. A negative control was prepared in the same manner but incubated at 37° C. in a closed vial for 8 hours. […] Solutions of senor 4 ([4]final =12.5 μM) in 5:95 MeOH/pH 7 buffer ([PO4^3−]=5 mM) solution (4.0 mL) were prepared, and the samples were placed in high traffic outdoor areas for 8 hours. The samples were not exposed directly to sunlight. A negative control was prepared in the same manner but incubated at 37° C. in a closed vial for 8 hours. Following the 8 hour incubation period, the fluorescence of each sample was measured. Ozone detection in ambient air. Solution A (5.0 μL, [compound 4]final=12.5 μM) was added to a mixture of MeOH/pH 7 buffer ([PO4^3−]=5 mM) (5:95) (4.0 mL), and 4 samples were placed in 4 outdoor areas throughout University of Pittsburgh campus for 8 hours (high temperature=32.2° C.; AQI=43; PM2.5=64) on Jun. […] The samples were not exposed to direct sunlight. […] For each location, triplicate replicas were performed."}, "[2]": {"assay": "Ozone detection in indoor air on adsorbent paper strips", "conditions": "500 nmol on adsorbent paper, photocopy room, eight hours", "experimental": "One embodiment of the present invention can be a badge that contains compound 4 that may be worn by patients so their total ozone exposure can be continuously measured through the day. A proof-of-principle experiment was conducted with compound 4 and compound 1 as a comparative. A solution of compound 4 (500 nmol) in dimethylsulfoxide (DMSO) was absorbed on a piece of adsorbent paper and allowed to dry. The paper strips were stored in an office room that had two photocopiers and two laser printers. After eight hours, the paper strips were removed and placed in a vial that contained oH 7 buffer to elute the dyes. […] The deviation in these values is presumably because of photobleaching and the lack of specificity of compound 1 towards various ROS, including singlet oxygen.\nOzone detection in indoor air. FIG. 10 are photographic illustrations of results of Ozone detection tests in indoor air using the present invention. The top photograph is a Kimwipe® before placing into photocopy room for 8 hours. The bottom photographs are a Kimwipe® in buffer for absorbance and fluorescence measurement, wherein the left photograph is an indigo carmine taken in room light), and the right photograph is compound 4 taken under long-range UV lamp. One adsorbent paper (Kimwipe®) was cut into two 11×9 cm pieces. Solution A (50 μL, 500 nmol of compound 4) was added to one portion of the Kimwipe® and allowed to dry (FIG. 10, top right). Solution B (50 μL, 500 nmol of indigo carmine) was added to the other portion of the Kimwipe® and allowed to dry (FIG. 10, top left). After overnight drying in a laboratory drawer, the paper strips were moved to a poorly ventilated photocopy room (2 photocopiers and 2 laser printers) for 8 hours. The controls remained in the laboratory drawer. After 8 hours, the samples were placed into a scintillation vial, and the dyes were eluted with pH 7 buffer (6.0 mL) (˜5 min) before fluorescence and absorbance measurement. […] FIGS. 3C-D error bars were determined from the calculated mean and standard deviation (Prism 5.0a, GraphPad Software, Inc.)."}, "[3]": {"assay": "Ozone detection in nasal fluid", "conditions": "ozone ~5 μM", "experimental": "FIG. 2D illustrates Ozone detection in nasal fluid, wherein Left Sample: 4, no ozone; Right Sample: 4, + ozone.\nOne embodiment of the present invention is a biomedical probe to detect ozone. Since ozone is believed to be much too reactive to reach and permeate the epithelial cells, ozone detection in the presence of various antioxidants that are found in the epithelial lining fluid was attempted. […] Nasal fluid was tested to more accurately mimic the epithelial lining fluid of the lung.\nOzone detection in human pleural fluid. Human pleural fluid (1.0 mL) was diluted in pH 7 buffer ([PO4^3−]=5 mM) (3.0 mL). Solution A (5.0 μL, [compound 4]final=12.5 μM) was added to the resulting human pleural fluid mixture, and the samples were exposed to ozone (˜5 μM) at 24° C. followed by 1 hour incubation at 37° C. before fluorescence measurement. The experiment was performed in triplicate with an illustration of one of the tests represented in FIG. 2D."}, "[4]": {"assay": "Time-dependence of the conversion of compound 4 to compound 7", "conditions": "37° C.", "experimental": "Time-dependence of the conversion of compound 4 to compound 7 in buffer. Solution A ([compound 4]final=12.5 μM) was added to a mixture of MeOH/pH 7 buffer ([PO4^3−]=5 mM) (5:95) (4.0 mL), and the sample was exposed to ozone (˜5 μM) at 24° C. followed by incubation at 37° C. Aliquots of the reaction mixture were taken out at various times for fluorescence measurement (FIG. S6). The conversion of compound 4 to compound 7 requires 60 minutes for completion (presumably the β-elimination is the rate determining step because the formation and fragmentation of molozonides are extremely rapid), but 10-15 minutes is sufficient to observe fluorescence signal.\nFIG. 7 illustrates time-dependence of the conversion of compound 4 to compound 7 in cell culture media at 37° C. […]. Solution A ([compound 4]final=12.5 μM) was added to a mixture of 10% FBS in RPMI-1640 cell culture media/pH 7 buffer ([PO4^3−]=5 mM) (1:3) (4.0 mL), and the sample was exposed to ozone (˜5 μM) at 24° C. followed by incubation at 37° C. Aliquots of the reaction mixture were taken out at various times for fluorescence measurement (FIG. 8). The conversion of compound 4 to compound 7 requires 15-20 minutes for completion, but <5 minutes is sufficient to observe fluorescence signal. Although the exact mechanism of this enhancement is not known, catalysis of a β-elimination by action of bovine serum albumin has been previously reported."}, "[5]": {"assay": "Concentration dependence / sensitivity of fluorescent ozone detection", "conditions": "MeOH/pH 7 buffer (5:95), samples diluted 10-fold", "experimental": "FIG. 2B is a correlation between fluorescent intensity and ozone in 5:95 MeOH/pH 7 buffer after ten-fold dilution of original samples. The linear correlation is y=0.000900x+0.0467; R^2=0.987; average standard deviation=0.00844. The intensity continued to be linear up to 12.5 μM.\nThe present invention the sensitivity of our fluorescent method for ozone detection was examined. The fluorescent intensity correlated to the concentration of ozone in the 50 nM-12.5 μM (2.4-600 ppbv) range with S/B of 2.6-310 after 10-fold dilution of the original samples (0-500 nM shown in FIG. 2B). The level of detection is 59 nM (2.9 ppbv; S/B=3) and the level of quantitation is 340 nM (16 ppbv; S/B=10).\nConcentration dependence. […] Error bars were determined from the calculated mean and standard deviation (Prism 5.0a, GraphPad Software, Inc.)."}, "[6]": {"conditions": "10% FBS in RPMI-1640 cell culture media/pH 7 buffer (1:3)"}, "[7]": {"conditions": "MeOH/pH 7 buffer (5:95), ozone ~5 μM"}}, "data": [{"smiles": "C=CCCOc1cc2oc3cc(=O)c(Cl)cc-3c(-c3ccccc3CO)c2cc1Cl", "note": "[compound 4]", "values": [{"measurement": "ozone level correlating to S/B, based on linear regression", "setting": "[1]", "result": "13-22 ppb"}, {"measurement": "S/B", "setting": "[1]; 5:95 MeOH/pH 7 buffer", "result": "10-17"}, {"measurement": "compound 7 generated on paper strip", "setting": "[2]", "result": 0.95, "unit": "nmol"}, {"measurement": "S/B", "setting": "[3]", "result": 92}, {"measurement": "time required for completion of conversion of compound 4 to compound 7", "setting": "[4]; [6]", "result": "15 to 20", "unit": "min"}, {"measurement": "time sufficient to observe fluorescence signal", "setting": "[4]; [6]", "result": "< 5", "unit": "min"}, {"measurement": "time required for completion of conversion of compound 4 to compound 7", "setting": "[4]; [7]", "result": 60, "unit": "min"}, {"measurement": "time sufficient to observe fluorescence signal", "setting": "[4]; [7]", "result": "10 to 15", "unit": "min"}, {"measurement": "background signal (fluorescence intensity, λem=523 nm)", "setting": "[5]", "result": "0.0377×10^5"}]}]}
